Results taken from the NIST ThermoML archive (doi:10.1021/acs.jced.8b00132).
“And” between values parts separate entries of the source, which are not always exact repeats. Equal entries are not always repeated.

Conditions: Gas

O=C(C(F)(F)C(F)(F)F)C(F)(C(F)(F)F)C(F)(F)F [dodecafluoro-2-methylpentan-3-one]
Conditions | thermal conductivity
499.7 K, 3616 kPa, transient hot wire | 0.03337 W/m/K
499.7 K, 4324 kPa, transient hot wire | 0.03528 W/m/K
499.7 K, 5590 kPa, transient hot wire | 0.03721 W/m/K
499.7 K, 35697 kPa, transient hot wire | 0.05683 W/m/K
499.7 K, 50253 kPa, transient hot wire | 0.06228 W/m/K
499.7 K, 50292 kPa, transient hot wire | 0.06274 W/m/K
499.71 K, 3616 kPa, transient hot wire | 0.03339 W/m/K
499.71 K, 25604 kPa, transient hot wire | 0.05236 W/m/K
499.72 K, 3288 kPa, transient hot wire | 0.03208 W/m/K
499.72 K, 4324 kPa, transient hot wire | 0.03516 W/m/K
499.72 K, 18413 kPa, transient hot wire | 0.04809 W/m/K
499.73 K, 643 kPa, hot wire | 0.02734 W/m/K and 0.02744 W/m/K
499.73 K, 4855 kPa, transient hot wire | 0.03606 W/m/K and 0.03623 W/m/K
499.73 K, 18416 kPa, transient hot wire | 0.04833 W/m/K
499.73 K, 35665 kPa, transient hot wire | 0.05687 W/m/K
499.74 K, 3288 kPa, transient hot wire | 0.03222 W/m/K
499.74 K, 3937 kPa, transient hot wire | 0.03429 W/m/K
499.74 K, 50254 kPa, transient hot wire | 0.06235 W/m/K
499.75 K, 418 kPa, hot wire | 0.02717 W/m/K
499.75 K, 2128 kPa, transient hot wire | 0.02829 W/m/K
499.75 K, 35673 kPa, transient hot wire | 0.05679 W/m/K
499.75 K, 35689 kPa, transient hot wire | 0.05686 W/m/K
499.75 K, 50278 kPa, transient hot wire | 0.06281 W/m/K
499.76 K, 417 kPa, hot wire | 0.02687 W/m/K
499.76 K, 1595 kPa, transient hot wire | 0.02727 W/m/K
499.76 K, 5594 kPa, transient hot wire | 0.03739 W/m/K
499.76 K, 25601 kPa, transient hot wire | 0.05218 W/m/K
499.76 K, 25602 kPa, transient hot wire | 0.05226 W/m/K
499.76 K, 50255 kPa, transient hot wire | 0.06232 W/m/K
499.77 K, 1595 kPa, transient hot wire | 0.0273 W/m/K
499.77 K, 4324 kPa, transient hot wire | 0.03524 W/m/K
499.78 K, 5592 kPa, transient hot wire | 0.03734 W/m/K
499.79 K, 60 kPa, hot wire | 0.02624 W/m/K
499.79 K, 218 kPa, hot wire | 0.02627 W/m/K
499.79 K, 2953 kPa, transient hot wire | 0.03092 W/m/K
499.79 K, 3618 kPa, transient hot wire | 0.03355 W/m/K
499.79 K, 4324 kPa, transient hot wire | 0.03534 W/m/K
499.79 K, 35664 kPa, transient hot wire | 0.05692 W/m/K
499.79 K, 50251 kPa, transient hot wire | 0.06211 W/m/K
499.8 K, 60 kPa, hot wire | 0.02618 W/m/K
499.8 K, 217 kPa, hot wire | 0.02613 W/m/K
499.8 K, 869 kPa, transient hot wire | 0.02693 W/m/K and 0.02695 W/m/K
499.8 K, 2952 kPa, transient hot wire | 0.03103 W/m/K
499.8 K, 3936 kPa, transient hot wire | 0.03437 W/m/K
499.8 K, 4855 kPa, transient hot wire | 0.03629 W/m/K
499.81 K, 2569 kPa, transient hot wire | 0.0294 W/m/K
499.81 K, 3287 kPa, transient hot wire | 0.0325 W/m/K and 0.03233 W/m/K
499.81 K, 3936 kPa, transient hot wire | 0.03445 W/m/K
499.81 K, 35680 kPa, transient hot wire | 0.05678 W/m/K
499.81 K, 35689 kPa, transient hot wire | 0.05675 W/m/K
499.81 K, 50253 kPa, transient hot wire | 0.06239 W/m/K
499.82 K, 2568 kPa, transient hot wire | 0.02959 W/m/K
499.82 K, 35681 kPa, transient hot wire | 0.05686 W/m/K
499.83 K, 646 kPa, transient hot wire | 0.02724 W/m/K
499.83 K, 647 kPa, transient hot wire | 0.02739 W/m/K
499.83 K, 13400 kPa, transient hot wire | 0.04508 W/m/K
499.84 K, 5595 kPa, transient hot wire | 0.03734 W/m/K
499.84 K, 13403 kPa, transient hot wire | 0.04494 W/m/K
499.84 K, 18418 kPa, transient hot wire | 0.04825 W/m/K
499.85 K, 3618 kPa, transient hot wire | 0.0337 W/m/K
499.85 K, 4324 kPa, transient hot wire | 0.03554 W/m/K
499.85 K, 25604 kPa, transient hot wire | 0.05216 W/m/K
499.85 K, 35654 kPa, transient hot wire | 0.05672 W/m/K
499.86 K, 4325 kPa, transient hot wire | 0.03565 W/m/K
499.87 K, 5595 kPa, transient hot wire | 0.03732 W/m/K
499.87 K, 35670 kPa, transient hot wire | 0.05702 W/m/K
499.88 K, 1594 kPa, transient hot wire | 0.02746 W/m/K
499.88 K, 1595 kPa, transient hot wire | 0.02725 W/m/K
499.88 K, 2128 kPa, transient hot wire | 0.02824 W/m/K
499.88 K, 2952 kPa, transient hot wire | 0.03099 W/m/K
499.88 K, 3619 kPa, transient hot wire | 0.03371 W/m/K
499.88 K, 3936 kPa, transient hot wire | 0.03462 W/m/K
499.89 K, 422 kPa, transient hot wire | 0.02757 W/m/K
499.89 K, 2128 kPa, transient hot wire | 0.02826 W/m/K
499.89 K, 2952 kPa, transient hot wire | 0.03116 W/m/K
499.89 K, 3936 kPa, transient hot wire | 0.03474 W/m/K
499.89 K, 35669 kPa, transient hot wire | 0.05673 W/m/K
499.9 K, 421 kPa, transient hot wire | 0.02748 W/m/K
499.91 K, 2567 kPa, transient hot wire | 0.02946 W/m/K
499.91 K, 3287 kPa, transient hot wire | 0.03278 W/m/K
499.91 K, 10172 kPa, transient hot wire | 0.0425 W/m/K
499.91 K, 25600 kPa, transient hot wire | 0.05221 W/m/K
499.92 K, 6555 kPa, transient hot wire | 0.03863 W/m/K
499.92 K, 10173 kPa, transient hot wire | 0.0424 W/m/K
